Measurements from patent US6437002B1, “Agent for preventing and treating skin diseases” (Showa Denko K.K., priority 1998, dated 2002).

Legend:
[1] = test system: dorsum skin of hairless mouse; assay: Test (A): skin permeability and ascorbic acid activity, H-type transverse diffusion cell; assay type: in vitro ADME; design: key: When an ascorbic acid transmitted through the skin was identified, the evaluation was “+”; when an ascorbic acid was not detected, the evaluation was “−”; When a peak on the order of a trace was confirmed, the evaluation was “+”; details: abraded hairless mouse skin, 37° C., 30 to 120 minutes
Protocol: The dorsum skin with corium of a 4- or 5-week-old hairless mouse was abraded and the skin abraded from the back of the hairless mouse was fixed in an H-type transverse diffusion cell. Then, 2 ml of DALBECCO PBS(−) was charged into the receiver-side cell and 2 ml of a specimen was charged into the donor-side cell. After incubation at 37° C. for from 30 to 120 minutes, 200 μl was sampled from the […] and 200 μl of DALBECCO PBS(−) was replenished. An ascorbic acid amount of the solution sampled was analyzed by the HPLC method described later in the Examples. When an ascorbic acid transmitted through the skin was detected and identified, the evaluation was “+” and when an ascorbic acid was not detected and identified, the evaluation was “−”. When a peak on the order of a trace was confirmed, the evaluation was “±”.
The dorsum skin with corium of a 4- or 5-week-old hairless mouse was abraded and the skin abraded from the back of the hairless mouse was fixed in an H-type transverse diffusion cell. Then, 2 ml of DALBECCO PBS(−) was charged into the receiver-side cell and 2 ml of a specimen was charged into the donor-side cell (in the case of an oil-soluble material, it was emulsion-dispersed in an ordinary manner by adding 2% of a surfactant Tween 80 (trademark)). After incubation at 37° C. for from 30 to 120 minutes, 200 μl was sampled from the […] and 200 μl of DALBECCO PBS (−) was replenished. An ascorbic acid amount of the solution sampled was analyzed by the HPLC method in the Examples. When an ascorbic acid transmitted through the skin was identified, the evaluation was “+” and when an ascorbic acid was not detected, the evaluation was “−” When a peak on the order of a trace was confirmed, the evaluation was […].

[2] = Test (B): durability (activity duration) on storage; assay type: physicochemical; details: 0.5% in water (oil-soluble: emulsion with 2% Tween 80), stored at 40° C. for one month
Protocol: An ascorbic acid derivative was dissolved in water to have a concentration of 0.5% (in the case of an oil-soluble SF-621 US material, it was emulsion-dispersed in an ordinary manner by adding 2% of a surfactant Tween 80 (trademark)) and stored at 40° C. for one month. Then the residual amount of the derivative was measured by the HPLC method described later in the Examples. When the residual ratio was 90% or more, the evaluation was “+” and when it was less than 90%, the evaluation was “−”.
An ascorbic acid derivative was dissolved in water to have a concentration of 0.5% (in the case of an oil-soluble material, it was emulsion-dispersed in an ordinary manner by adding 2% of a surfactant Tween 80 (trademark)) and stored at 40° C. for one month. Then the residual amount of the derivative was measured by the HPLC method. When the residual ratio was 90% or more, the evaluation was “+” and when it was less than 90%, the evaluation was “−”.

Compound | Test (A): skin permeability and ascorbic acid activity (ascorbic acid transmitted through the skin, by HPLC) [1] | Test (B): durability (residual ratio of the derivative by HPLC) [2]
2-Palmitoyloxy-L-ascorbic acid-2-phosphate | + | 
Cc1c(C)c2c(c(C)c1OP(=O)(O)OC1=C(O)[C@@H]([C@@H](O)CO)OC1=O)CC[C@@](C)(CCC[C@H](C)CCC[C@H](C)CCCC(C)C)O2 [Ascorbic acid tocopherolphosphate diester, reference compound] | − | + (When the residual ratio was 90% or more, the evaluation was “+”)
O=C1O[C@H]([C@@H](O)CO)C(O)=C1O[C@H]1O[C@H](CO)[C@@H](O)[C@H](O)[C@H]1O [L-Ascorbic acid-2-glucoside] | + | + (When the residual ratio was 90% or more, the evaluation was “+”)
O=C1O[C@H]([C@@H](O)CO)C(O)=C1OP(=O)([O-])[O-].[Mg+2] [Magnesium L-ascorbic acid-2-phosphate] |  | + (When the residual ratio was 90% or more, the evaluation was “+”)
O=C1O[C@H]([C@@H](O)CO)C(O)=C1OP(=O)([O-])[O-].[K+].[K+] [Potassium L-ascorbic acid-2-phosphate] | + | + (When the residual ratio was 90% or more, the evaluation was “+”)
O=C1O[C@H]([C@@H](O)CO)C(O)=C1OP(=O)([O-])[O-].[Na+].[Na+] [Sodium L-ascorbic acid-2-phosphate] | + | + (When the residual ratio was 90% or more, the evaluation was “+”)
O=C1O[C@H]([C@@H](O)CO)C(O)=C1OS(=O)(=O)[O-].[Na+] [Sodium L-ascorbic acid-2-sulfate, reference compound] | − | + (When the residual ratio was 90% or more, the evaluation was “+”)
